According to ChEMBL document CHEMBL3885861, “Open TG-GATES”:

Organism: Rattus norvegicus
Test: Open TG-GATES - Regimen: Daily Repeat
Assay type: toxicity, organism-based, Sprague-Dawley
Set-up: regimen Daily Repeat, gender Male, age 6 weeks
Conditions: in vivo, po, route gavage; for ALP / ALT / AST / BUN / CRE / Ca / Cl / DBIL / GLC / IP / K / LDH / Na / PL / RALB / TBIL / TC / TG / TP / gamma-GTP / A/G: tissue Plasma; for APTT / Bas / Eos / Fbg / Hb / Ht / Lym / MCH / MCHC / MCV / Mono / Neu / PT / Plat / RBC / Ret / WBC: tissue Blood; for KIDNEY_L / KIDNEY_R / KIDNEY_TOTAL: tissue Kidney; for LIVER: tissue Liver
[1] = 3 mg/kg, […], dose level Low, time 14 day
[2] = 3 mg/kg, […], dose level Low, time 28 day
[3] = 10 mg/kg, 72 h, dose level Middle, time 3 day
[4] = 10 mg/kg, […], dose level Middle, time 7 day
[5] = 10 mg/kg, […], dose level Middle, time 14 day
[6] = 10 mg/kg, […], dose level Middle, time 28 day
[7] = 30 mg/kg, 72 h, dose level High, time 3 day
[8] = 30 mg/kg, […], dose level High, time 7 day
[9] = 30 mg/kg, […], dose level High, time 14 day

C[C@H]1C(=O)O[C@@H]2CCN3CC=C(COC(=O)[C@](C)(O)[C@]1(C)O)[C@H]23 [MONOCROTALINE]
ALP [1]: 1435.6 IU/L | ALT [1]: 41.4 IU/L | AST [1]: 76.6 IU/L | BUN [1]: 16.4 mg/dL | CRE [1]: 0.2 mg/dL | Ca [1]: 11 mg/dL | Cl [1]: 106.4 meq/L | DBIL [1]: 0 mg/dL | GLC [1]: 185.4 mg/dL | IP [1]: 6.2 mg/dL | K [1]: 4 meq/L | LDH [1]: 269.8 IU/L | Na [1]: 142.4 meq/L | PL [1]: 161.6 mg/dL | RALB [1]: 3 g/dL | TBIL [1]: 0 mg/dL | TC [1]: 92.2 mg/dL | TG [1]: 97 mg/dL | TP [1]: 5.9 g/dL | gamma-GTP [1]: 2.2 IU/L | A/G [2]: 1.1 | ALP [2]: 1124.2 IU/L | ALT [2]: 41.8 IU/L | AST [2]: 87.4 IU/L | BUN [2]: 19 mg/dL | CRE [2]: 0.2 mg/dL | Ca [2]: 10.7 mg/dL | Cl [2]: 108.4 meq/L | DBIL [2]: 0 mg/dL | GLC [2]: 182.2 mg/dL | IP [2]: 6 mg/dL | K [2]: 4.3 meq/L | LDH [2]: 290.2 IU/L | Na [2]: 143.2 meq/L | PL [2]: 158.8 mg/dL | RALB [2]: 3.2 g/dL | TBIL [2]: 0.034 mg/dL | TC [2]: 81.2 mg/dL | TG [2]: 128.2 mg/dL | TP [2]: 6.1 g/dL | gamma-GTP [2]: 1.2 IU/L | TERMINAL_BW [3]: 231.2 g | APTT [3]: 19.4 s | Bas [3]: 0% | Eos [3]: 0.8% | Fbg [3]: 324.6 mg/dL | Hb [3]: 13.8 g/dL | Ht [3]: 40.1% | Lym [3]: 78.2% | MCH [3]: 21.5 pg | MCHC [3]: 34.5% | MCV [3]: 62.2 fL | Mono [3]: 2.8% | Neu [3]: 17.6% | PT [3]: 15.9 s | Plat [3]: 126.9 x10_4/uL | RBC [3]: 646.6 x10_4/ul | Ret [3]: 6% | WBC [3]: 73.2 x10_2/uL | KIDNEY_L [3]: 1 g | KIDNEY_R [3]: 1 g | KIDNEY_TOTAL [3]: 2 g | LIVER [3]: 10.7 g | A/G [3]: 1.3 | ALP [3]: 1897.2 IU/L | ALT [3]: 40.8 IU/L | AST [3]: 73.6 IU/L | BUN [3]: 16.2 mg/dL | CRE [3]: 0.2 mg/dL | Ca [3]: 10.9 mg/dL | Cl [3]: 106.4 meq/L | DBIL [3]: 0.002 mg/dL | GLC [3]: 184.4 mg/dL | IP [3]: 7.2 mg/dL | K [3]: 4.6 meq/L | LDH [3]: 283 IU/L | Na [3]: 142 meq/L | PL [3]: 167.2 mg/dL | RALB [3]: 3.1 g/dL | TBIL [3]: 0.01 mg/dL | TC [3]: 90.4 mg/dL | TG [3]: 113.6 mg/dL | TP [3]: 5.5 g/dL | gamma-GTP [3]: 1 IU/L | TERMINAL_BW [4]: 249.4 g | TERMINAL_BW [5]: 274.8 g | TERMINAL_BW [6]: 321 g | APTT [4]: 21.5 s | Bas [4]: 0% | Eos [4]: 1% | Fbg [4]: 391.6 mg/dL | Hb [4]: 13.9 g/dL | Ht [4]: 39.4% | Lym [4]: 78.8% | MCH [4]: 20.7 pg | MCHC [4]: 35.1% | MCV [4]: 58.8 fL | Mono [4]: 4.2% | Neu [4]: 14.8% | PT [4]: 16.4 s | Plat [4]: 134.7 x10_4/uL | RBC [4]: 670.6 x10_4/ul | Ret [4]: 4.5% | WBC [4]: 135.7 x10_2/uL | APTT [5]: 21.2 s | Bas [5]: 0% | Eos [5]: 0.2% | Fbg [5]: 480 mg/dL | Hb [5]: 14.4 g/dL | Ht [5]: 41.1% | Lym [5]: 84.2% | MCH [5]: 20.5 pg | MCHC [5]: 35.2% | MCV [5]: 58.2 fL | Mono [5]: 4.8% | Neu [5]: 9.6% | PT [5]: 16.4 s | Plat [5]: 136.8 x10_4/uL | RBC [5]: 705.4 x10_4/ul | Ret [5]: 2.9% | WBC [5]: 250.8 x10_2/uL | APTT [6]: 26.9 s | Bas [6]: 0% | Eos [6]: 1% | Fbg [6]: 293.8 mg/dL | Hb [6]: 15.3 g/dL | Ht [6]: 43.1% | Lym [6]: 76.4% | MCH [6]: 18.8 pg | MCHC [6]: 35.6% | MCV [6]: 52.7 fL | Mono [6]: 4.6% | Neu [6]: 17% | PT [6]: 16.1 s | Plat [6]: 84.1 x10_4/uL | RBC [6]: 818 x10_4/ul | Ret [6]: 4.5% | WBC [6]: 308 x10_2/uL | KIDNEY_L [4]: 1.1 g | KIDNEY_R [4]: 1.1 g | KIDNEY_TOTAL [4]: 2.2 g | KIDNEY_L [5]: 1.1 g | KIDNEY_R [5]: 1.2 g | KIDNEY_TOTAL [5]: 2.3 g | KIDNEY_L [6]: 1.3 g | KIDNEY_R [6]: 1.3 g | KIDNEY_TOTAL [6]: 2.6 g | LIVER [4]: 11.6 g | LIVER [5]: 13.3 g | LIVER [6]: 15 g | A/G [4]: 1.1 | ALP [4]: 1684.4 IU/L | ALT [4]: 46.6 IU/L | AST [4]: 87.8 IU/L | BUN [4]: 15.4 mg/dL | CRE [4]: 0.1 mg/dL | Ca [4]: 11 mg/dL | Cl [4]: 107.4 meq/L | DBIL [4]: 0.002 mg/dL | GLC [4]: 181.2 mg/dL | IP [4]: 6.6 mg/dL | K [4]: 4.3 meq/L | LDH [4]: 236 IU/L | Na [4]: 142 meq/L | PL [4]: 149 mg/dL | RALB [4]: 3 g/dL | TBIL [4]: 0.006 mg/dL | TC [4]: 82 mg/dL | TG [4]: 111 mg/dL | TP [4]: 5.7 g/dL | gamma-GTP [4]: 1.8 IU/L | A/G [5]: 0.8 | ALP [5]: 2092 IU/L | ALT [5]: 88.8 IU/L | AST [5]: 174.4 IU/L | BUN [5]: 17.2 mg/dL | CRE [5]: 0.3 mg/dL | Ca [5]: 11.2 mg/dL | Cl [5]: 106.6 meq/L | DBIL [5]: 0.006 mg/dL | GLC [5]: 171 mg/dL | IP [5]: 5.9 mg/dL | K [5]: 4.8 meq/L | LDH [5]: 454.8 IU/L | Na [5]: 141 meq/L | PL [5]: 139 mg/dL | RALB [5]: 2.6 g/dL | TBIL [5]: 0.008 mg/dL | TC [5]: 71.6 mg/dL | TG [5]: 103.2 mg/dL | TP [5]: 5.8 g/dL | gamma-GTP [5]: 2.4 IU/L | A/G [6]: 0.9 | ALP [6]: 1353.2 IU/L | ALT [6]: 82.8 IU/L | AST [6]: 155 IU/L | BUN [6]: 17.4 mg/dL | CRE [6]: 0.2 mg/dL | Ca [6]: 11 mg/dL | Cl [6]: 107.8 meq/L | DBIL [6]: 0.078 mg/dL | GLC [6]: 167.6 mg/dL | IP [6]: 6 mg/dL | K [6]: 4.5 meq/L | LDH [6]: 382.8 IU/L | Na [6]: 141.4 meq/L | PL [6]: 140 mg/dL | RALB [6]: 2.9 g/dL | TBIL [6]: 0.1 mg/dL | TC [6]: 79.6 mg/dL | TG [6]: 47.2 mg/dL | TP [6]: 6 g/dL | gamma-GTP [6]: 1.6 IU/L | TERMINAL_BW [7]: 232.9 g | APTT [7]: 17.3 s | Bas [7]: 0% | Eos [7]: 0.8% | Fbg [7]: 350.2 mg/dL | Hb [7]: 13.8 g/dL | Ht [7]: 39.9% | Lym [7]: 73.6% | MCH [7]: 21.4 pg | MCHC [7]: 34.5% | MCV [7]: 62.1 fL | Mono [7]: 4.4% | Neu [7]: 19.8% | PT [7]: 16.2 s | Plat [7]: 124.3 x10_4/uL | RBC [7]: 643.2 x10_4/ul | Ret [7]: 4.8% | WBC [7]: 80.8 x10_2/uL | KIDNEY_L [7]: 1 g | KIDNEY_R [7]: 1 g | KIDNEY_TOTAL [7]: 2.1 g | LIVER [7]: 12.5 g | A/G [7]: 1.3 | ALP [7]: 1831.6 IU/L | ALT [7]: 47.2 IU/L | AST [7]: 112.4 IU/L | BUN [7]: 13.6 mg/dL | CRE [7]: 0.1 mg/dL | Ca [7]: 11.1 mg/dL | Cl [7]: 106.4 meq/L | DBIL [7]: 0.01 mg/dL | GLC [7]: 180.2 mg/dL | IP [7]: 7 mg/dL | K [7]: 4.5 meq/L | LDH [7]: 398 IU/L | Na [7]: 141.2 meq/L | PL [7]: 161.4 mg/dL | RALB [7]: 3.2 g/dL | TBIL [7]: 0.028 mg/dL | TC [7]: 88.4 mg/dL | TG [7]: 100 mg/dL | TP [7]: 5.7 g/dL | gamma-GTP [7]: 1.2 IU/L | TERMINAL_BW [8]: 230.5 g | APTT [8]: 24.3 s | Bas [8]: 0% | Eos [8]: 0.4% | Fbg [8]: 451.4 mg/dL | Hb [8]: 14.1 g/dL | Ht [8]: 40.7% | Lym [8]: 71.6% | MCH [8]: 20.2 pg | MCHC [8]: 34.6% | MCV [8]: 58.3 fL | Mono [8]: 4.8% | Neu [8]: 18.6% | PT [8]: 17.5 s | Plat [8]: 44 x10_4/uL | RBC [8]: 697.8 x10_4/ul | Ret [8]: 2.9% | WBC [8]: 122 x10_2/uL | Mono [9]: 7% | KIDNEY_L [8]: 1.1 g | KIDNEY_R [8]: 1.1 g | KIDNEY_TOTAL [8]: 2.2 g | LIVER [8]: 11.3 g | A/G [8]: 1 | ALP [8]: 1889.2 IU/L | ALT [8]: 273.2 IU/L | AST [8]: 504.2 IU/L | BUN [8]: 13 mg/dL | CRE [8]: 0.2 mg/dL | Ca [8]: 10.8 mg/dL | Cl [8]: 106 meq/L | DBIL [8]: 0.2 mg/dL | GLC [8]: 156 mg/dL | IP [8]: 6.9 mg/dL | K [8]: 4.4 meq/L | LDH [8]: 749.6 IU/L | Na [8]: 141 meq/L | PL [8]: 139.8 mg/dL | RALB [8]: 2.6 g/dL | TBIL [8]: 0.3 mg/dL | TC [8]: 86.4 mg/dL | TG [8]: 38.8 mg/dL | TP [8]: 5.3 g/dL | gamma-GTP [8]: 2.2 IU/L | BUN [9]: 13.5 mg/dL | CRE [9]: 0.2 mg/dL | TP [9]: 4.9 g/dL
